Biological target: T1, rat mGlu2 (Rattus norvegicus, UniProt P31421)
T1 construct: expressed in transfected cells
Test: mGlu2 Ca2+ flux assay
Assay type: cell-based
Conditions: for IC50: Gα15 HEK293 cells stably expressing rat mGlu2, glutamate EC80 addition, read-out: rat mGlu2 IC50; for remaining activity at 30 µM: amplitude of response in the presence of 30 μM test compound as percentage of maximal response to glutamate, read-out: rat mGlu2 Glu max (%)
Experimental: Gα15 HEK293 cells stably expressing rat mGlu2 were plated in black-walled, clear-bottomed, poly-D-lysine coated 384-well plates in 20 μL of assay medium (DMEM containing 10% dialyzed FBS, 20 mM HEPES, and 1 mM sodium pyruvate) at a density of 12K cells/well. The cells were grown overnight at 37° C. in the presence of 5% CO2. The next day, medium was removed and the cells incubated with 20 μL of 2.3 μM Fluo-4, AM prepared as a 2.3 mM stock in DMSO and mixed in a 1:1 ratio with 10% (w/v) pluronic acid F-127 and diluted in assay buffer (Hank's balanced salt solution, 20 mM HEPES, and 2.5 mM probenecid) for 45 minutes at 37° C. Dye was removed, 20 μL of assay buffer was added, and the plate was incubated for 5 minutes at room temperature.
Ca^2+ flux was measured using the Functional Drug Screening System (FDSS7000, Hamamatsu, Japan). After establishment of a fluorescence baseline for about 3 seconds, the compounds of the present invention were added to the cells, and the response in cells was measured. 2.3 minutes later an EC20 concentration of the mGlu2 receptor agonist glutamate was added to the cells, and the response of the cells was measured for 1.9 minutes; an EC80 concentration of agonist was added and readings taken for an additional 1.7 minutes. All test compounds were dissolved and diluted to a concentration of 10 mM in 100% DMSO. Compounds were then serially diluted 1:3 in DMSO into 10 point concentration response curves, transferred to daughter plates, and further diluted into assay buffer to a 2× stock. Calcium fluorescence measures were recorded as fold over basal fluorescence; raw data was then normalized to the maximal response to glutamate. Antagonism of the agonist response of the mGlu2 receptor in the present invention was observed as a decrease in response to nearly maximal concentrations of glutamate in the presence of compound compared to the response to glutamate in the absence of compound.
The raw data file containing all time points was used as the data source in the analysis template. This was saved by the FDSS as a tab-delimited text file. Data were normalized using a static ratio function (F/F0) for each measurement of the total 360 values per well divided by each well's initial value. Data were then reduced to peak amplitudes (Max−Initial Min) using a time range that starts approximately 3 seconds prior to the glutamate EC80 addition and continues for approximately 90 seconds. This is sufficient time to capture the peak amplitude of the cellular calcium response. Individual amplitudes were expressed as % ECMax by multiplying each amplitude by 100 and then dividing the product by the mean of the amplitudes derived from the glutamate ECMax-treated wells. IC50 values for test compounds were generated by fitting the normalized values versus the log of the test compound concentration (in mol/L) using a 4 parameter logistic equation where none of the parameters were fixed. Each of the three values collected at each concentration of test compound were weighted evenly.
For NAMs, potency (IC50) and maximum response (% Glu Max), i.e. the amplitude of response in the presence of 30 μM test compound as a percentage of the maximal response to glutamate, are reported. […] Compounds with no measurable activity are designated as “>30,000 nM” since the top concentration of compound tested in the assay is 30 μM.

T1 sequence (P31421 19-872): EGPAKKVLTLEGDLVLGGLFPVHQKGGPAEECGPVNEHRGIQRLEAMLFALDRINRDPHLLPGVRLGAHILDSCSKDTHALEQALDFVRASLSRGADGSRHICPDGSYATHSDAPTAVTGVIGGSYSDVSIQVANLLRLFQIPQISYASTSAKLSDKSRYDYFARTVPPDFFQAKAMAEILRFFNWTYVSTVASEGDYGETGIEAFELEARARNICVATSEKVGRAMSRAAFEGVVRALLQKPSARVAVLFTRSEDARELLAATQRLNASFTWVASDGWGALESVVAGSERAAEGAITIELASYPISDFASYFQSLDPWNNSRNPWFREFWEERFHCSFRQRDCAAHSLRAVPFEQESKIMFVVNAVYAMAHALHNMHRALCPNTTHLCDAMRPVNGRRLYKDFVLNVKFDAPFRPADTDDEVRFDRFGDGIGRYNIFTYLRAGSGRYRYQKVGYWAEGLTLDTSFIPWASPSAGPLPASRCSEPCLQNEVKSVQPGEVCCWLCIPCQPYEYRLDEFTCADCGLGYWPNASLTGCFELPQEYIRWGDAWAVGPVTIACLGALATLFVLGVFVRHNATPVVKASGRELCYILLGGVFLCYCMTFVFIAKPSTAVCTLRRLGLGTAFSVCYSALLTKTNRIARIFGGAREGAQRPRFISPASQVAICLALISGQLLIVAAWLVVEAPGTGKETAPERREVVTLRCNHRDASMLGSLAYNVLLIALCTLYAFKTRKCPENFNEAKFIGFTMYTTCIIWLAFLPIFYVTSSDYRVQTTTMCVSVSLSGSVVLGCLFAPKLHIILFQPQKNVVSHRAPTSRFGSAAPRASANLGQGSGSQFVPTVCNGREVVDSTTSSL

| Structure (SMILES) | IC50 [nM] | remaining activity at 30 µM [%] |
| --- | --- | --- |
| Cc1ncc(CN(C)c2ccc3c(c2)c(=O)c(C(N)=O)cn3-c2ccc(F)cc2)cn1 [Compound 31, 1-(4-fluorophenyl)-6-(methyl((2-methylpyrimidin-5-yl)methyl)amino)-4-oxo-1,4-dihydroquinoline-3-carboxamide] | 153 ± 33 | 1.86 ± 0.26 |
| NC(=O)c1cn(-c2ccc(F)cc2)c2ccc(NCC3CCOCC3)cc2c1=O [Compound 53, 1-(4-fluorophenyl)-4-oxo-6-(((tetrahydro-2H-pyran-4-yl)methyl)amino)-1,4-dihydroquinoline-3-carboxamide] | 659 | 1.04 |
| NC(=O)c1cn(-c2ccc(F)cc2)c2ccc(CN3CCCC4CCCCC43)cc2c1=O (stereo not drawn) [Compound 67, 1-(4-fluorophenyl)-6-((octahydroquinolin-1(2H)-yl)methyl)-4-oxo-1,4-dihydroquinoline-3-carboxamide] | 617 | 2.4 |
| NC(=O)c1cn(-c2ccc(F)cc2)c2ccc(NCCc3cccnc3)cc2c1=O [Compound 27, 1-(4-fluorophenyl)-4-oxo-6-((2-(pyridin-3-yl)ethyl)amino)-1,4-dihydroquinoline-3-carboxamide] | 391 | 1.75 |
| CS(=O)(=O)C1CCN(Cc2ccc3c(c2)c(=O)c(C(N)=O)cn3-c2ccc(F)cc2)CC1 [Compound 76, 1-(4-fluorophenyl)-6-((4-(methylsulfonyl)piperidin-1-yl)methyl)-4-oxo-1,4-dihydroquinoline-3-carboxamide] | 1120 | 1.29 |
| CC1(C)CN(Cc2ccc3c(c2)c(=O)c(C(N)=O)cn3-c2ccc(F)cc2)CCO1 [Compound 90, 6-((2,2-dimethylmorpholino)methyl)-1-(4-fluorophenyl)-4-oxo-1,4-dihydroquinoline-3-carboxamide] | 142 | 2.01 |
| Cc1ncc(-c2ccc3c(c2)c(=O)c(C(N)=O)cn3-c2ccc(F)cc2)cn1 [Compound 62, 1-(4-fluorophenyl)-6-(2-methylpyrimidin-5-yl)-4-oxo-1,4-dihydroquinoline-3-carboxamide] | > 10000 | 30.3 |
| C[C@H]1CN(Cc2ccc3c(c2)c(=O)c(C(N)=O)cn3-c2ccc(F)cc2)CCO1 [Compound 88, (S)-1-(4-fluorophenyl)-6-((2-methylmorpholino)methyl)-4-oxo-1,4-dihydroquinoline-3-carboxamide] | 724 | 1.36 |
| NC(=O)c1cn(-c2ccc(F)cc2)c2ccc(CN3CCC(F)(F)CC3)cc2c1=O [Compound 78, 6-((4,4-difluoropiperidin-1-yl)methyl)-1-(4-fluorophenyl)-4-oxo-1,4-dihydroquinoline-3-carboxamide] | 197 ± 91 | 1.59 ± 0.27 |
| COC1CCN(Cc2ccc3c(c2)c(=O)c(C(N)=O)cn3-c2ccc(F)cc2)CC1 [Compound 74, 1-(4-fluorophenyl)-6-((4-methoxypiperidin-1-yl)methyl)-4-oxo-1,4-dihydroquinoline-3-carboxamide] | 1880 | 1.23 |
| Cc1ccc(OCc2ccc3c(c2)c(=O)c(C(N)=O)cn3-c2ccc(F)cc2)cn1 [Compound 41, 1-(4-fluorophenyl)-6-(((6-methylpyridin-3-yl)oxy)methyl)-4-oxo-1,4-dihydroquinoline-3-carboxamide] | 265 ± 73 | 1.62 ± 0.23 |
| CC(Oc1ccc2c(c1)c(=O)c(C(N)=O)cn2-c1ccc(F)cc1)c1cccnc1 (stereo not drawn) [Compound 30, 1-(4-fluorophenyl)-4-oxo-6-(1-(pyridin-3-yl)ethoxy)-1,4-dihydroquinoline-3-carboxamide] | 391 ± 44 | 1.31 ± 0.45 |
| NC(=O)c1cn(-c2ccc(F)cc2)c2ccc(CCc3cncc(F)c3)cc2c1=O [Compound 48, 1-(4-fluorophenyl)-6-(2-(5-fluoropyridin-3-yl)ethyl)-4-oxo-1,4-dihydroquinoline-3-carboxamide] | 1030 | 1.4 |
| Cc1ccc(Oc2ccc3c(c2)c(=O)c(C(N)=O)cn3-c2ccc(F)cc2)cn1 [Compound 55, 1-(4-Fluorophenyl)-6-((6-methylpyridin-3-yl)oxy)-4-oxo-1,4-dihydroquinoline-3-carboxamide] | 1710 | 1.96 |
| CS(=O)(=O)N1CCN(Cc2ccc3c(c2)c(=O)c(C(N)=O)cn3-c2ccc(F)cc2)CC1 [Compound 83, 1-(4-fluorophenyl)-6-((4-(methylsulfonyl)piperazin-1-yl)methyl)-4-oxo-1,4-dihydroquinoline-3-carboxamide] | 694 | 1.47 |
| NC(=O)c1cn(-c2ccc(F)cc2)c2c(F)cc(CN3CCC(F)(F)CC3)cc2c1=O [Compound 94, 6-((4,4-difluoropiperidin-1-yl)methyl)-8-fluoro-1-(4-fluorophenyl)-4-oxo-1,4-dihydroquinoline-3-carboxamide] | 1770 | 5.78 |
| Cc1ncc(COc2ccc3c(c2)c(=O)c(C(N)=O)cn3-c2ccc(F)cc2)cn1 [Compound 29, 1-(4-fluorophenyl)-6-((2-methylpyrimidin-5-yl)methoxy)-4-oxo-1,4-dihydroquinoline-3-carboxamide] | 843 | 1.92 |
| Cc1ncc(CCc2cc3c(=O)c(C(N)=O)cn(-c4ccc(F)cc4)c3cc2F)cn1 [Compound 54, 7-fluoro-1-(4-fluorophenyl)-6-(2-(2-methylpyrimidin-5-yl)ethyl)-4-oxo-1,4-dihydroquinoline-3-carboxamide] | 2700 | 1.02 |
| CC1CN(Cc2ccc3c(c2)c(=O)c(C(N)=O)cn3-c2ccc(F)cc2)CCO1 (stereo not drawn) [Compound 79, 1-(4-fluorophenyl)-6-((2-methylmorpholino)methyl)-4-oxo-1,4-dihydroquinoline-3-carboxamide] | 328 ± 64 | 1.31 ± 0.04 |
| NC(=O)c1cn(-c2ccc(F)cc2)c2ccc(CN3CCCSCC3)cc2c1=O [Compound 71, 6-((1,4-thiazepan-4-yl)methyl)-1-(4-fluorophenyl)-4-oxo-1,4-dihydroquinoline-3-carboxamide] | 164 | 2.06 |
| CN1CCN(Cc2ccc3c(c2)c(=O)c(C(N)=O)cn3-c2ccc(F)cc2)CC1 [Compound 87, 1-(4-fluorophenyl)-6-((4-methylpiperazin-1-yl)methyl)-4-oxo-1,4-dihydroquinoline-3-carboxamide] | 1360 | 0.93 |
| Cc1cc(COc2ccc3c(c2)c(=O)c(C(N)=O)cn3-c2ccc(F)cc2)ccn1 [Compound 24, 1-(4-fluorophenyl)-6-((2-methylpyridin-4-yl)methoxy)-4-oxo-1,4-dihydroquinoline-3-carboxamide] | 422 ± 94 | 1.09 ± 0.16 |
| Cc1ncc(Oc2ccc3c(c2)c(=O)c(C(N)=O)cn3-c2ccc(F)cc2)cn1 [Compound 57, 1-(4-fluorophenyl)-6-((2-methylpyrimidin-5-yl)oxy)-4-oxo-1,4-dihydroquinoline-3-carboxamide] | 4480 | 15.7 |
| CN(Cc1ccncc1)c1ccc2c(c1)c(=O)c(C(N)=O)cn2-c1ccc(F)cc1 [Compound 19, 1-(4-fluorophenyl)-6-(methyl(pyridin-4-ylmethyl)amino)-4-oxo-1,4-dihydroquinoline-3-carboxamide] | 224 | 1.02 |

Reference: patent publication US9382208B1, “Negative allosteric modulators of metabotropic glutamate receptor 2” (Vanderbilt University, priority 2015, dated 2016)
